# Measured values as given in US4216127A, “Enkephalin analogues” (American Home Products Corporation, priority 1979, dated 1980).
# Square brackets hold non-standard residues; d marks the D form. Ends that are not written are not given here.
# Assays:
# CF-1 mice = assay: phenylbenzoquinone induced writhing test (modified Siegmund procedure); assay type: in vivo
# Description: Biol. Med. 95 729-731 (1957), in which groups of ten CF-1 mice were administered, subcutaneously, known dosages of N(Me)Tyr--D--Asn--Gly--N(Me)Phe--D--Asn--NH2, as a compound representative of the group of compounds of this invention. Five minutes later, each animal received, i.p., 0.25 ml. of a 0.02 percent phenylbenzoquinone solution. The animals were observed over a ten minute period following the phenylbenzoquinone injection for the presence of writhing. […] The dose-response analysis was then performed according to Litchfiled et al., J. Pharmacol. exp. Therap. 96 99--113(1949). The ED50 for the test compound was 1.0 mg/kg (0.62-1.6) at 30 minutes by subcutaneous administration.
# [1] = intracerebral (icv) administration; cited from earlier work
# [2] = intravenous administration; more potent than morphine; cited from earlier work
molecule,measurement,setting,value
CC(=O)O.CN[C@@H](Cc1ccc(O)cc1)C(=O)N[C@H](CC(N)=O)C(=O)NCC(=O)N(C)[C@@H](Cc1ccccc1)C(=O)N[C@H](CC(N)=O)C(N)=O [N-Methyl-L-tyrosyl-D-asparaginyl-glycyl-N-methyl-L-phenylalanyl-D-asparaginyl amide acetate],animals in which analgesia was observed,"CF-1 mice; dose of 10 mg/kg, same procedure, for a period of forty five minutes",100%
same,"ED50 (analgesia, absence of writhing)","CF-1 mice; subcutaneous administration, at 30 minutes, limits (0.62-1.6), groups of ten CF-1 mice",1.0 mg/kg
"II: pentapeptide Tyr--Gly--Gly--Phe--X where X=Met, isolated by Hughes et al. (YGGFM; printed: Tyr--Gly--Gly--Phe--Met)",analgesic activity after icv administration,[1],analgesic activity only after intracerebral (icv) administration
Tyr--D--Ala--Gly--Phe--Met--NH2 [III],analgesic activity after icv administration,[1],potent and prolonged analgesia
Y[dM]GFP-NH2 [IV],potency relative to morphine,[2],5.5 times
